Data on 87 compounds can be found in a melting point compilation (Tetko et al.; mined from patent text by program, amines drawn as free bases though some values may be those of a salt).

SMILES strings stand for the structures.

The compound `CCCCc1c(C(=O)O)ccc2c(OC)cccc12` showed a melting point of 154 to 155 °C.

Turning to `COCCCNc1nc(N)c(C(=O)c2ccccc2[N+](=O)[O-])s1`, the melting point fell in the range of 170 to 172 °C.

`CCCCc1oc2ccccc2c1C(=O)NCC(=O)c1ccc2cc(OC)ccc2c1` had a melting point of 129 to 131 °C.

`C[C@]12CC[C@H]3[C@@H](CCC4=CC(=O)CC[C@@]43COC(=O)C34CC5CC(CC(C5)C3)C4)[C@@H]1CCC2=O` came in with a melting point of 161 to 163 °C.

`CCOC(=O)c1c(N2CCN(C(=O)c3cccs3)CC2)c2cccnc2[nH]c1=O` returned a melting point of 239 °C.

Compound `COc1ccccc1-n1c(=O)[nH]c2c(C(N)=O)nc(-c3cccc(C(F)(F)F)c3)nc21` yielded a melting point of 271 to 275 °C.

The compound `CCCOc1ccc(OC)c(-c2csc(NC(=O)c3ccc(OCC(OCC)OCC)cc3)n2)c1` gave a melting point of 107 °C.

For `O=C(O)c1cncn1C(C1CCCCC1)C1CCCCC1`, the melting point came out at 253 °C.

Turning to `OCC1C(O)C(O)C(O)CN1C=CCc1cccc(OCCOc2cccc(CC=CN3CC(O)C(O)C(O)C3CO)c2)c1` (configuration not stated), the melting point is 210 to 213 °C.

Compound `COc1ccc(N2C(=O)[C@H](O)[C@@H]2CC(C)C)cc1` yielded a melting point of 160 to 163 °C.

For the compound `CC(CCCC(C)(C)OC1CCCCO1)C1CCC2C3CC=C4CC(O)CC(O)C4(C)C3CCC12C` (configuration not stated), the melting point was in the range of 130 to 132 °C.

`Cc1cc(C)cc(C(=O)c2c(C(C)C)c(=O)[nH]c(=O)n2Cc2ccnc(Cl)n2)c1` yielded a melting point of 197 to 198 °C.

Compound `CC(SC1COC(c2ccc(C(=O)Nc3ccc(C#N)cc3)cc2)OC1)C(O)(Cn1cncn1)c1ccc(F)cc1F` (configuration not stated) yielded a melting point of 176 °C.

As to `CC(CN(C)S(C)(=O)=O)n1nnc2cc3c(=O)n(C4CC4)nnc3cc2c1=O` (configuration not stated), the melting point lay within 170 to 172 °C.

`CC(=S)Nc1ccc(-c2nc3ccccc3o2)cc1` yielded a melting point of 212 to 214 °C.

For the compound `NC(=O)c1cc(F)cc(-c2cccc3cc(Cc4cc(F)cc(Cl)c4)sc23)c1`, the melting point lay in the range of 186 to 187 °C.

With `COC(=O)c1ccc(CNC(=O)C2Cc3ccccc3N2S(=O)(=O)c2ccc(-c3cccc(C(F)(F)F)c3)cc2)c(Cl)c1` (configuration not stated), the melting point lay within 78 to 87 °C.

`CC(=O)c1cccc(NC(=S)N(C)N)c1`: the melting point is 125 to 127 °C.

The compound `CC1(C)CC(=C(c2ccc(O)cc2)c2ccc(-c3ccccc3C(=O)O)cc2)CC(C)(C)C1` came in with a melting point of 230 to 231 °C.

On to `O=C(O)C1=Cc2cccc(F)c2OC1C(F)(F)F` (configuration not stated), for which the melting point is 198 to 210 °C.

Consider `O=C(O)Cc1ccc2c(c1)CC(=O)c1ccccc1C2`, for which the melting point was 163 to 165 °C.

Consider `O=c1n(CCCN2CCC(n3c(=O)[nH]c4ccccc43)CC2)nc2n1-c1ccccc1OC2`, for which the melting point is 176 to 178 °C.

Compound `COc1ccc(C(=O)N2C(C)Cc3ccccc3C2CNC(=O)c2cc(OC)c(OC)c(OC)c2)cc1` (configuration not stated) gave a melting point of 213 to 215 °C.

For the compound `Cc1noc(NC(=O)N2CCC(c3nc(-c4ccccc4)cs3)CC2)c1C`, the melting point was 156 to 157 °C.

`Cc1ccc(C2c3c(C)cc(C)c(C)c3OC2(C)C)cc1` (configuration not stated) yielded a melting point of 117 to 118 °C.

`CN1c2ccccc2N(C(=O)c2ccccc2)C(=O)c2cccnc21` registered a melting point of 181 to 183 °C.

Consider `Cc1oc(-c2cccc(-c3ccc(C(=O)O)cc3)c2)nc1CCOc1cccc(OC(C)(C)C(=O)O)c1`, for which the melting point worked out at 184 °C.

`COc1ccc(C(=O)C2CCN(C3CN(C(=O)c4ccccc4)CCC3O)CC2)cc1` (configuration not stated) came in with a melting point of 114 to 115 °C.

`CC(=O)N1CCc2ccc(C(=O)CCCC3CCN(Cc4ccccc4Cl)CC3)cc2CC1` returned a melting point of 99 to 100 °C.

As for `COc1ccc(C(=O)NC(=S)NCc2ccccc2C(N)=O)cc1`, the melting point is 140 to 143 °C.

Regarding `NS(=O)(=O)c1cc(C(=O)O)cc(SCC(Br)CBr)c1Cc1ccccc1` (configuration not stated), the melting point lay within 205 to 207 °C.

`CC(=O)C(=Cc1cc(O)c(O)c(Cl)c1)C(C)=O` registered a melting point of 167 to 171 °C.

`CC1(C)CC(=O)c2c(SCc3ccccc3)cn(-c3ccccn3)c2C1` showed a melting point of 190 to 192 °C.

For the compound `CCOC(=O)c1ccc(C(F)(F)F)c(N(C)C(C)=O)n1`, the melting point was in the range of 145 to 146 °C.

`O=C1c2cccc3c(Cl)c(Cl)cc(c23)C(=O)N1O` displayed a melting point of 267 to 269 °C.

Compound `CCCCOc1nc(N)c2nc(Br)n(C3CCCCO3)c2n1` (configuration not stated) had a melting point of 148 to 150 °C.

Consider `Cc1cc(-c2c(-c3ccc(S(N)(=O)=O)cc3)cnn(-c3ccc(F)c(F)c3)c2=O)ccc1F`, for which the melting point lay within 243 to 245 °C.

In turn, `O=S(=O)(/C=C/c1ccccc1)Nc1ccc(F)cc1` yielded a melting point of 83 to 85 °C.

Consider `CC(Cn1ccc(C(F)(F)F)n1)n1nnc2cc3c(=O)n(C(C)Cn4ncnn4)nnc3cc2c1=O` (configuration not stated), for which the melting point lay in the range of 95 to 97 °C.

`COc1ccc(CC2SC(=O)NC2=O)c2c1N(Cc1ccc([N+](=O)[O-])cc1)C(=O)CC2` (configuration not stated) registered a melting point of 246 to 247 °C.

As for `CN(CC#N)Cc1nc(-c2cc(C(C)(C)C)c(O)c(C(C)(C)C)c2)cs1`, the melting point fell in the range of 150 to 156 °C.

In the case of `COC(=O)C1(O)CC(CO)=NN1c1ncccc1Cl` (configuration not stated), the melting point was in the range of 111 to 113 °C.

In turn, `CC(=O)Nc1ccc(F)cc1S(=O)(=O)CC#N` came in with a melting point of 154 to 157 °C.

Compound `COc1cc(CCI)cc(OC)c1` yielded a melting point of 30 to 33 °C.

`CCOC(=O)C1(C(N)=O)OCCO1` had a melting point of 99 to 100 °C.

Compound `CC(NC(=O)C(C)(Cc1ccccc1)NC(=O)OC(c1ccc(F)cc1)C(C)C)c1ccccc1` (configuration not stated) gave a melting point of 154 °C.

Compound `Cn1c(=O)cc(-c2cccc(Cl)c2)c2cc(C(O)(c3ccc(Cl)cc3)c3cnccc3Cl)ccc21` (configuration not stated) gave a melting point of 178 °C.

As for `CS(=O)(=O)CC(=O)N[C@H]1CC[C@H](CCN2CCN(c3nccc4ccoc34)CC2)CC1`, the melting point stood at 182 °C.

For the compound `CCCn1cc(C(=O)NCc2ccc(Cl)cc2)c(=O)c2cc(CCl)oc21`, the melting point was in the range of 160 to 162 °C.

`N#Cc1ccnc(C=Cc2ccccc2)n1` displayed a melting point of 147 to 150 °C.

Take `CCCc1c(OCCCOc2cc(OCC(=O)OC)ccc2C(C)=O)ccc(C(C)=O)c1O`: the melting point lay within 103 to 106 °C.

`Nc1ncnc2c1c(-c1cccc(O)c1)cn2C1CC(CN2CCCC2)C1` (configuration not stated) gave a melting point of 193 to 194 °C.

For `O=C1CN2CCC(CC2)N1`, the melting point was in the range of 121 to 122 °C.

In the case of `CCOC(=O)C1=CC2=C(C)C(C)(OC)C=C(C)C2=N1` (configuration not stated), the melting point fell in the range of 182 to 183 °C.

For `CC(C)(C)c1cn(N=Cc2cccnc2)c(=O)[nH]1`, the melting point lay in the range of 255 to 256 °C.

`CSc1cc(C)c(O)cc1C` showed a melting point of 98 to 99 °C.

`CC(Cc1ccc(OCc2cccc(C(=O)O)c2)cc1)NCCC(c1ccccc1)c1ccccc1` (configuration not stated) registered a melting point of 209 to 212 °C.

As for `CC(CCCS(C)(=O)=O)C(c1cc(F)ccc1F)S(=O)(=O)c1ccc(Cl)cc1` (configuration not stated), the melting point fell in the range of 115 to 117 °C.

`COc1cc(N)c(C(=O)c2ccncc2)cc1OC` came in with a melting point of 155 to 158 °C.

The compound `Cc1ccc(S(=O)(=O)c2cc3c(c(S(=O)(=O)NCCc4ccccc4F)c2)CCCC3)cc1` returned a melting point of 55 to 60 °C.

For `CN(C(=O)C1CCC1)c1cccc(-c2ccnc3c(C(=O)c4ccco4)cnn23)c1`, the melting point is 166 to 167 °C.

In the case of `CCOC(=O)c1cnc2c(-c3cccc(Cl)c3)cnn2c1Cl`, the melting point lay in the range of 140 to 141 °C.

As for `CC(O)Cn1nc(-c2cnc3[nH]cc(C(=O)NC(C)C(=O)N4CC(C#N)C4)c3n2)c2ccc(Cl)cc21` (configuration not stated), the melting point fell in the range of 160 to 165 °C.

Consider `CCCn1nc(C(N)=O)cc1CC`, for which the melting point lay in the range of 105 to 106 °C.

Consider `O=C1Nc2ccccc2SC(c2ccccc2)C1CO` (configuration not stated), for which the melting point is 248 °C.

With `Cc1nccn1CCC(=O)NC(C)c1ccc(Cl)cc1` (configuration not stated), the melting point fell in the range of 135 to 137 °C.

In turn, `c1cncc(CCc2ccc(C3OCCO3)cc2)c1` gave a melting point of 46 to 47 °C.

With `COc1c(C(=O)O)sc(C(F)(F)F)c1SCc1ccccc1`, the melting point was in the range of 146 to 147 °C.

Compound `COc1ccc(N2CCN(S(=O)(=O)[C@H](C)[C@](O)(Cn3cncn3)c3ccc(F)cc3F)CC2)cc1` displayed a melting point of 190 to 191 °C.

Take `FCc1nnc2n1-c1ccc(Cl)cc1C(c1ccccc1)=NC2`: the melting point fell in the range of 153 to 154 °C.

`N#Cc1ccc2c(c1)S(=O)c1ccc(F)cc1C=C2` (configuration not stated) yielded a melting point of 240 to 243 °C.

In turn, `CCOC(=O)c1cc([N+](=O)[O-])ccc1OCc1ccc2ccccc2n1` had a melting point of 139 to 140 °C.

`O=C(Nc1ccncc1)c1ccc(OC(F)F)c2oc3ccc(C(F)(F)F)cc3c12` gave a melting point of 228 °C.

For the compound `O=S(=O)(Nc1ccc(N2CCN3CCC2CC3)cc1)c1ccccc1`, the melting point was determined as 267 °C.

Compound `CS(=O)c1cccc(-n2c(=O)n(Cc3ccncc3)c(=O)c3cccnc32)c1` (configuration not stated) came in with a melting point of 218 to 219 °C.

`CCOC(=O)C=Cc1cc([N+](=O)[O-])cc2c1CCCC2` registered a melting point of 95 to 96 °C.

`Nc1nc2ccccc2c2c1nc(CCCOc1ccccc1)n2CCCNC(=O)N1CCOCC1` displayed a melting point of 199 to 200 °C.

With `O=C(NCCc1ccccc1)c1ccc(OC(F)(F)F)cc1`, the melting point lay within 143 to 144 °C.

`Cc1ccc([N+](=O)[O-])cc1S(=O)(=O)N(C)C` displayed a melting point of 72 to 74 °C.

The compound `CCOC(=O)c1cnc2ccc(C#N)cc2c1O` had a melting point of more than 265 °C.

`O=CNC1Cc2ccccc2C1` had a melting point of 72 to 74 °C.

Take `C=CCC1Oc2ccccc2-c2c(OC)cc3c(c21)C(C)=CC(C)(C)N3` (configuration not stated): the melting point lay within 84 to 86 °C.

Take `COC(=O)C1=Cc2cc(Br)ccc2N(C)CCC1`: the melting point was in the range of 88 to 89 °C.

On to `COc1cc2c(cc1Nc1ncc(Cl)c(Nc3ccccc3S(=O)(=O)C(C)C)n1)CCN(CC(=O)N1CCCC1)CC2`, for which the melting point fell in the range of 88 to 105 °C.

The compound `CC(C)(C)OC(=O)NCCCc1ccc2c(n1)NCCC2` displayed a melting point of 95.2 to 96.3 °C.

Compound `O=C1CCN(C2(OCCOc3ccccc3)OCCO2)CC1` yielded a melting point of 105 to 106 °C.

As for `O=C(OCc1ccccc1)N1CCN(CCN2C(=O)c3ccccc3C2=O)CC1`, the melting point fell in the range of 89.5 to 90.5 °C.
